Key:
[1] = Measurement of log P values by HPLC on reversed phase columns (methods [a] pH 2.3, [b] pH 2.7, [c] pH 7.8); assay type: physicochemical; conditions: HPLC reversed phase
Procedure, shortened: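 Retention times were converted to log P by linear interpolation between linear alkan-2-one standards (3 to 16 carbons) of known log P. Eluents, each with 10% to 95% acetonitrile gradient: phosphoric acid 0.1% at pH 2.3 [a]; formic acid 0.1% at pH 2.7, LC-MS [b]; ammonium hydrogen carbonate 0.001 molar at pH 7.8, LC-MS [c].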

[2] = system: Meloidogyne incognita; assay: Meloidogyne incognita test (MELGIN), gall formation on salad seedlings; assay type: in vivo; conditions: application rate 20 ppm, after 14 days
Method: Meioidovnve incomita—Test (MELGIN)
Solvent: 125.0 parts by weight of acetone
To produce a suitable preparation of active compound, 1 part by weight of active compound is mixed with the stated amount of solvent, and the concentrate is diluted with water to the desired concentration.
Vessels are filled with sand, a solution of the active ingredient, a suspension containing eggs and larvae of the southern root-knot nematode (Meloidogyne incognita) and salad seeds. The salad seeds germinate and the seedlings grow. Galls develop in the roots.
After 14 days the nematicidal activity is determined on the basis of the percentage of gall formation. 100% means that no galls were found; 0% means the number of galls found on the roots of the treated plants was equal to that in untreated control plants.

Structure (SMILES)	logP ([1]; method [b] (pH 2.7))	nematicidal activity (percentage of gall formation; 100% = no galls) [2] [%]	logP ([1]; method [c] pH 7.8)
O=C(N[C@@H]1CC[C@@H]1c1ccc(Cl)cc1Cl)c1ncccc1Cl (relative stereo) [Compound 260]	3.28^[b]	100	–
O=C(N[C@@H]1CC[C@@H]1c1ccc(Cl)cc1Cl)c1ccccc1Cl (relative stereo) [Compound 261]	3.45^[b]	100	–
O=C(N[C@@H]1CC[C@H]1c1ccc(F)cc1C(F)(F)F)c1cccnc1C(F)(F)F (relative stereo) [Compound 487]	3.20^[b]	90	–
O=C(N[C@@H]1CC[C@@H]1c1ccc(F)cc1C(F)(F)F)c1cccnc1C(F)(F)F (relative stereo) [Compound 489]	3.02^[b]	100	–
O=C(N[C@@H]1CC[C@@H]1c1ccc(F)cc1C(F)(F)F)c1ccccc1Br (relative stereo) [Compound 491]	3.39^[b]	100	–
O=C(N[C@@H]1CC[C@@H]1c1ccc(F)cc1C(F)(F)F)c1c(F)cccc1F (relative stereo) [Compound 493]	3.18^[b]	100	–
O=C(N[C@@H]1CC[C@H]1c1ccc(F)cc1C(F)(F)F)c1ccccc1C(F)(F)F (relative stereo) [Compound 494]	3.72^[b]	90	–
O=C(N[C@@H]1CC[C@@H]1c1ccc(F)cc1C(F)(F)F)c1ccccc1C(F)(F)F (relative stereo) [Compound 495]	3.51^[b]	100	–
O=C(N[C@@H]1CC[C@H]1c1ccc(F)cc1C(F)(F)F)c1ccccc1Br (relative stereo) [Compound 501]	3.64^[b]	100	–
O=C(N[C@@H]1CC[C@@H]1c1ccc(F)cc1C(F)(F)F)c1ccccc1I (relative stereo) [Compound 503]	3.50^[b]	100	–
O=C(N[C@@H]1CC[C@@H]1c1ccc(F)cc1C(F)(F)F)c1ccccc1 (relative stereo) [Compound 505]	2.97^[b]	90	–
O=C(N[C@@H]1CC[C@@H]1c1ccc(F)cc1C(F)(F)F)c1ccccc1Cl (relative stereo) [Compound 509]	3.34^[b]	100	–
O=C(N[C@@H]1CC[C@@H]1c1ccc(F)cc1C(F)(F)F)c1cccnc1Cl (relative stereo) [Compound 515]	2.73^[b]	100	–
O=C(N[C@@H]1CC[C@@H]1c1ccc(F)cc1C(F)(F)F)c1nccnc1Cl (relative stereo) [Compound 516]	2.89^[b]	100	–
O=C(N[C@@H]1CC[C@@H]1c1ccc(F)cc1C(F)(F)F)c1ccccc1[N+](=O)[O-] (relative stereo) [Compound 522]	3.04^[b]	90	–
O=C(N[C@@H]1CC[C@@H]1c1ccc(F)cc1C(F)(F)F)c1cccnc1 (relative stereo) [Compound 523]	2.18^[b]	90	–
O=C(N[C@@H]1CC[C@@H]1c1cc(F)ccc1C(F)(F)F)c1ccccc1Cl (relative stereo) [Compound 528]	3.34^[b]	100	–
O=C(N[C@@H]1C[C@@H]1c1ccc(Cl)cc1)c1nccnc1C(F)(F)F (relative stereo) [Compound 532]	2.68^[b]	100	2.65^[c];
O=C(N[C@@H]1CC[C@@H]1c1c(F)cccc1C(F)(F)F)c1ncccc1Cl (relative stereo) [Compound 537]	2.92^[b]	100	–
O=C(N[C@@H]1CC[C@@H]1c1ccccc1Cl)c1ccccc1[N+](=O)[O-] (relative stereo) [Compound 538]	2.71^[b]	100	–

Structure (SMILES)	logP ([1]; method [b] (pH 2.7))	nematicidal activity (percentage of gall formation; 100% = no galls) [2] [%]	logP ([1]; method [c] pH 7.8)
O=C(N[C@@H]1CC[C@@H]1c1cc(F)ccc1C(F)(F)F)c1ccccc1[N+](=O)[O-] (relative stereo) [Compound 540]	3.07^[b]	100	–
O=C(N[C@@H]1CC[C@@H]1c1cc(F)ccc1C(F)(F)F)c1ccccc1I (relative stereo) [Compound 541]	3.52^[b]	100	–
O=C(N[C@@H]1CC[C@@H]1c1c(F)cccc1C(F)(F)F)c1ccccc1I (relative stereo) [Compound 542]	3.96^[b]	100	–
O=C(N[C@@H]1CC[C@@H]1c1c(F)cccc1C(F)(F)F)c1ncc(C(F)(F)F)cc1Cl (relative stereo) [Compound 543]	4.13^[b]	90	–
O=C(N[C@@H]1CC[C@H]1c1ccccc1Cl)c1sccc1I (relative stereo) [Compound 544]	3.86^[b]	90	–
Cc1nc(C(F)(F)F)c(C(=O)N[C@@H]2CC[C@@H]2c2ccccc2Cl)s1 (relative stereo) [Compound 545]	3.15^[b]	100	–
O=C(N[C@@H]1CC[C@H]1c1ccccc1Cl)c1nccnc1Cl (relative stereo) [Compound 548]	2.81^[b]	100	–
O=C(N[C@@H]1CC[C@@H]1c1cc(F)ccc1C(F)(F)F)c1c(F)cccc1F (relative stereo) [Compound 549]	3.22^[b]	100	–
O=C(N[C@@H]1CC[C@@H]1c1cc(F)ccc1C(F)(F)F)c1ccccc1 (relative stereo) [Compound 550]	3.15^[b]	100	–
O=C(N[C@@H]1CC[C@@H]1c1c(F)cccc1C(F)(F)F)c1ccccc1 (relative stereo) [Compound 551]	3.23^[b]	100	–
O=C(N[C@@H]1CC[C@@H]1c1c(F)cccc1C(F)(F)F)c1ccccc1Cl (relative stereo) [Compound 553]	3.42^[b]	100	–
O=C(N[C@@H]1CC[C@@H]1c1ccccc1Cl)c1cccnc1 (relative stereo) [Compound 555]	1.18^[b]	90	–
Cn1cc(C(=O)N[C@@H]2CC[C@@H]2c2cc(F)ccc2C(F)(F)F)c(C(F)F)n1 (relative stereo) [Compound 556]	2.85^[b]	90	–
O=C(N[C@@H]1C[C@@H]1c1ccc(Cl)cc1Cl)c1ccccc1[N+](=O)[O-] (relative stereo) [Compound 558]	2.94^[b]	100	–
O=C(N[C@@H]1CC[C@@H]1c1cc(F)ccc1C(F)(F)F)c1nccnc1Cl (relative stereo) [Compound 559]	2.88^[b]	100	–
O=C(N[C@@H]1CC[C@@H]1c1cc(F)ccc1C(F)(F)F)c1ccccc1Br (relative stereo) [Compound 560]	3.38^[b]	100	–
O=C(N[C@@H]1CC[C@@H]1c1c(F)cccc1C(F)(F)F)c1ccccc1[N+](=O)[O-] (relative stereo) [Compound 561]	3.03^[b]	100	–
O=C(N[C@@H]1CC[C@@H]1c1c(F)cccc1C(F)(F)F)c1ccccc1Br (relative stereo) [Compound 563]	3.46^[b]	100	–
O=C(N[C@@H]1CC[C@@H]1c1c(F)cccc1C(F)(F)F)c1c(F)cccc1F (relative stereo) [Compound 564]	3.25^[b]	100	–

Source: patent publication US20160075653A1, “NEMATICIDAL N-(PHENYLCYCLOALKYL)CARBOXAMIDES AND N-(PHENYLCYCLOALKYL)THIOCARBOXAMIDES” (BAYER CROPSCIENCE AKTIENGESELLSCHAFT, priority 2013, published 2016)
